# Test results published in US20100144710A1, “Piperazine and Piperidine MGLUR5 Potentiators” (ASTRAZENECA AB, priority 2007, published 2010).
# pEC50: −log10 of the molar value.
# Target: T1, human mGluR5d (Homo sapiens, UniProt P41594)
# T1 construct: expressed in transfected cells
# Assay: intracellular calcium [Ca2+]i mobilization (FLIPR) functional assay in cells expressing mGluR5
# Type: cell-based
# Details: potentiators of mGluR5; 'assays described herein', assay not specified (FLIPR or IP3 turnover)
# Text: The pharmacological properties of the compounds of the invention can be analyzed using standard assays for functional activity. Examples of glutamate receptor assays are well known in the art as described in for example Aramori et al., Neuron 8:757 (1992), Tanabe et al., Neuron 8:169 (1992), Miller et al., J. Neuroscience 15: 6103 (1995), Balazs, et al., J. Neurochemistry 69:151 (1997). The methodology described in these publications is incorporated herein by reference. Conveniently, the compounds of the invention can be studied by means of an assay that measures the mobilization of intracellular calcium, [Ca^2+]i in cells expressing mGluR5.
# Intracellular calcium mobilization was measured by detecting changes in fluorescence of cells loaded with the fluorescent indicator fluo-3. Fluorescent signals were measured using the FLIPR system (Molecular Devices). A two addition experiment was used that could detect compounds that either activate or antagonize the receptor.
# For FLIPR analysis, cells expressing human mGluR5d were seeded on collagen coated clear bottom 96-well plates with black sides and analysis of [Ca^2+]i mobilization was done 24 hours after seeding.
# FLIPR experiments were performed using a laser setting of 0.800 W and a 0.4 second CCD camera shutter speed. Each FLIPR experiment was initiated with 160 μL of buffer present in each well of the cell plate. After each addition of the compound, the fluorescence signal was sampled 50 times at 1 second intervals followed by 3 samples at 5 second intervals. Responses were measured as the peak height of the response within the sample period.
# EC50 and IC50 determinations were made from data obtained from 8-point concentration response curves (CRC) performed in duplicate. Agonist CRC were generated by scaling all responses to the maximal response observed for the plate. Antagonist block of the agonist challenge was normalized to the average response of the agonist challenge in 14 control wells on the same plate.
# T1 sequence (P41594 21-942 isoform P41594-3 limits assumed): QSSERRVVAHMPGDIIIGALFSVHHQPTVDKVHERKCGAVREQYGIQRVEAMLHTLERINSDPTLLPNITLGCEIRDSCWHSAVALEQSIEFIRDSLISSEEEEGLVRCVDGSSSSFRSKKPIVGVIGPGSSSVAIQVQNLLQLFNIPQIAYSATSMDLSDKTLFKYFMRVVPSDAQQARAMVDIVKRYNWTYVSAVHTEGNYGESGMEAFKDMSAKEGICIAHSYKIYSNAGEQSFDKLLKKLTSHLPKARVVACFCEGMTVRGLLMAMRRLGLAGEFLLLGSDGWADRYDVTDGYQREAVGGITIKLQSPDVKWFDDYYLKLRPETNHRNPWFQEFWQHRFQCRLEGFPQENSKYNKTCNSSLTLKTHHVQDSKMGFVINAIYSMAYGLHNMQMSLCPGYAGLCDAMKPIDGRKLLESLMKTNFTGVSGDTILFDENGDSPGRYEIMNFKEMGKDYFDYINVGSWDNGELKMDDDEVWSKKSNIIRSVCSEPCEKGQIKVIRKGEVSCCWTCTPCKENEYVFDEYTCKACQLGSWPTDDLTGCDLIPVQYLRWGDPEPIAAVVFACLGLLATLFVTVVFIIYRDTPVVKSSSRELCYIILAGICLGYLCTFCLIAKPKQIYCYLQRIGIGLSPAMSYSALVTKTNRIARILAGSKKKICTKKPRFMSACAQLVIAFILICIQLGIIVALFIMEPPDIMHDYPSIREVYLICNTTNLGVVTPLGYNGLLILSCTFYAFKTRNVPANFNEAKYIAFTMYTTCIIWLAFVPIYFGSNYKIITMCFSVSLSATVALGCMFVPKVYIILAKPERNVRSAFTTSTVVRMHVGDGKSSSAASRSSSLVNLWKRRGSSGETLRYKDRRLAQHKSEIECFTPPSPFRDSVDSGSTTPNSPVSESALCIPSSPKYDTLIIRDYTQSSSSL
row,SMILES,pEC50
1,"CCCCOc1ccc(CC(=O)N2CCN(c3ncccc3C#N)CC2)cc1 [Compound 1, 2-{4-[2-(4-Butoxy-phenyl)-acetyl]-piperazin-l-yl}-nicotinonitrile]",5.29
2,"N#Cc1cccnc1N1CCN(C(=O)COc2ccccc2)CC1 [Compound 12, 2-[4-(2-Phenoxy-acetyl)-piperazin-1-yl]-nicotinonitrile]",5.46
3,"CCCOc1ccc(CC(=O)N2CCN(c3ncccc3C#N)CC2)cc1 [Compound 16, 2-{4-[2-(4-Propoxy-phenyl)-acetyl]-piperazin-1-yl}-nicotinonitrile]",5.55

# More lines, now with the values ahead:
row,pEC50,SMILES
1,5.47,"N#Cc1cccnc1N1CCN(C(=O)Cc2ccc(OCc3ccccn3)cc2)CC1 [Compound 45, 2-(4-{2-[4′-(Pyridin-2-ylmethoxy)-phenyl]-acetyl}-piperazin-1-yl)-nicotinonitrile]"
2,5.25,"CCCCc1ccc(N(CC(=O)N2CCN(c3nccnc3C#N)CC2)S(C)(=O)=O)cc1 [Compound 44, N-(4-Butyl-phenyl)-N-{2-(3′-cyano-2,3,5,6-tetrahydro-[1,2]bipyrazinyl-4-yl)-2-oxo-ethyl]-methanesulfonamide]"
